Our source for the Bioavailability values is US9913873B2, “Turmeric extract containing soft pastilles” (priority 2013, dated 2018).

A short description of this series: Preliminary finding on bioavailability of pure curcumin.

Take `COc1cc(/C=C/C(=O)CC(=O)/C=C/c2ccc(O)c(OC)c2)ccc1O` [Curcumin]: the Bioavailability entry is on record as “poor”.
